In patent US20250188080A1, “IMIDAZOLONYLQUINOLINE COMPOUNDS AND THERAPEUTIC USES THEREOF” (Merck Patent GmbH, priority 2019, published 2025):
“Also recorded” adds a separate entry of the source.

What was measured:
[1] = test system: pDNA-PK (Cellular mechanistic DNA-PK, HCT-116); experiment: pDNA-PK cellular assay; assay type: cell-based, human; conditions: HCT-116, 10 μM bleomycin
Procedure: HCT116 cells are cultured in MEM alpha medium with 10% fetal calf serum and 2 mM glutamine at 37° C. and 10% CO2. The cells were detached from the bottom of the culture vessels using trypsin/EDTA, centrifuged in centrifuge tubes, taken up in fresh medium and the cell density was determined. 100,000 cells were seeded in 1 ml of culture medium per well of a 24-well cell culture plate and cultured overnight. The next day, 10 μM bleomycin (DNA intercalator and DNA double-strand breaker inducer) and the test substances in fresh culture medium were added to the cells and cultured for a further six hours. Cell lysis was then performed and the cell lysates were spotted on a 96-well ELISA plate (Sigma-Aldrich WH0005591M2: total DNA-PK, Abcam ab18192 or Epitomics EM09912: phospho-serine 2056 DNA-PK), which was blocked and coated with DNA-PK specific antibody, and incubated at 4° C. overnight. Subsequently, the 96-well ELISA plates were treated with a detection antibody (Abcam ab79444: total DNA-PK) and a streptavidin-HRP conjugate. The development of the enzymatic reaction was carried out using a chemiluminescent reagent, the chemiluminescence was measured using the Mithras LB940. The signals with the phospho-DNA-PK specific antibody were normalized to the signal with the antibody against the whole protein DNA-PKc. […] The DMSO control was used as blank.

[2] = Microsomal stability (intrinsic clearance), human; assay type: in vitro ADME; set-up: microsomal CLint: dose or concentration left out as unconfirmed; conditions: for microsomal CLint: liver microsomes, pH 7.4
Source text: A microsomal stability assay is used to measure in vitro clearance (Clint). The assay involves measuring the rate of disappearance of a compound due to its intrinsic attitude to be metabolized (“intrinsic” meaning that the disappearance is not affected by other properties like permeability, binding etc. that play a role when quantifying in vivo clearance). The microsomal stability (intrinsic clearance, Clint) and, thus, metabolic stability is generally given as μl/min/mg protein. It can be visualized as the volume of solution that 1 mg of microsomes is able to clear of the compound in one minute.
A Tecan Genesis workstation (RSP 150/8) was used for to perform the microsomal incubations. Analysis was carried out using a Waters ACQUITY UPLC system coupled to an ABSciex API3000 mass spectrometer. Data analysis was performed using Assay Explorer (Symyx).
• Potassium phosphate buffer: 0.05 M potassium phosphate buffer pH 7.4 containing 1 mM MgCl2 • NADPH (nicotinamide adenine dinucleotide phosphate): 22.5 mg NADPH-Na4 in 1.8 ml potassium phosphate buffer • Acetonitrile: 50 Vol % acetonitrile (1 volume acetonitrile, 1 volume water) • DMSO: 20 Vol % DMSO in water • Stock solution of 20 mg/ml human or mouse liver microsomes (protein)/ml in phosphate buffer • Stock solution of 10 mM compound in 100% DMSO
Dilution of test compounds was done in 2 steps starting from a 10 mM stock solution of the respective compound in 100% DMSO. First 4 μl stock solution was added to 196 μl of 20 Vol % DMSO. In a second step, 10 μl of the first dilution were added to 1590 μl potassium phosphate buffer to achieve a final concentration of 1.25 μM in the final compound dilution. Thus, the amount of organic solvent in the assay was kept to a minimum (<1%).
The human or mouse liver microsome (protein) solution to be used in the assay was prepared by mixing 750 μl stock solution (20 mg/ml) and 2250 μl potassium phosphate buffer to a final concentration of 5 mg/ml.
Incubation was carried out on a 96 deep well incubation plate. […]

[3] = test system: xenografts of the human squamous cell head and neck model FaDu; experiment: FaDu SCCHN tumor model, combination with irradiation; assay type: in vivo, NMRI nu/nu mice; conditions: oral 10 or 25 mg/kg 30 min before each IR fraction; 6×5 days, 2 Gy
Procedure: One of the control groups was treated with vehicle only. The other control group was treated with IR only at 30 fractions IR of 2 Gy in a 5 days on/2 days off schedule and over a period of 6 weeks.

[4] = test system: HBCx-10 patient-derived triple-negative breast cancer xenograft; experiment: HBCx-10 patient-derived xenograft, combination with olaparib; assay type: in vivo, immunodeficient female mice; conditions: 100 mg/kg p.o. (3 d on/4 d off)×7 with olaparib 50 mg/kg p.o. qd×49
Procedure: Seventy (70) mice with a subcutaneously growing HBCx-10 tumor (P20.1.4/0) between 62.5 and 196.0 mm^3 were allocated to treatment when their mean and median tumor volume reached 131.16 and 126.00 mm^3 respectively.
Tumors were measured biweekly during the treatment period and once a week during the follow-up period.

SMILES	IC50 ([1]; Homo sapiens)	microsomal CLint [2]	Anti-tumor efficacy in combination with irradiation [3]	Anti-tumor efficacy in combination with olaparib [4]	IC50 [1]	CLint (human) ([2]; human microsomes)
COc1cc2ncc3c(c2cc1-c1cn(C)nc1C)n(-c1c(F)cncc1OC)c(=O)n3C (single isomer, unassigned) [Compound 1, 8-(1,3-Dimethyl-1H-pyrazol-4-yl)-1-(Sa)-(3-fluoro-5-methoxy-pyridin-4-yl)-7-methoxy-3-methyl-1,3-dihydro-imidazo[4,5-c]quinolin-2-one]	> 30 µM	< 10 µL/min/mg	significant dose-dependent anti-tumor responses; also recorded: strongly enhanced the efficacy of IR (irradiation) in a dose-dependent manner; also recorded: strong tumor growth inhibition	efficacy of Compound 1 in combination with olaparib was demonstrated	–	–
COc1cc2ncc3c(c2cc1-c1cn(C)nc1C)n(-c1c(F)cncc1OC)c(=O)n3C (single isomer, unassigned) [Compound 2, 8-(1,3-Dimethyl-1H-pyrazol-4-yl)-1-(Ra)-(3-fluoro-5-methoxy-pyridin-4-yl)-7-methoxy-3-methyl-1,3-dihydro-imidazo[4,5-c]quinolin-2-one]	–	–	–	–	> 30 µM	< 10 μl/min/mg protein
COc1cc2ncc3c(c2cc1-c1cn(C)nc1C)n(-c1c(F)cncc1OC)c(=O)n3C [Compound Y, 8-(1,3-dimethyl-1H-pyrazol-4-yl)-1-(3-fluoro-5-methoxypyridin-4-yl)-7-methoxy-3-methyl-1,3-dihydroimidazo[4,5-c]quinolin-2-one, reference compound]	> 30 µM	19 µL/min/mg	–	–	–	–
